Results as given in patent publication US11453697B1, “Cyclic di-nucleotide compounds as sting agonists” (Merck Sharp & Dohme Corp., priority 2015, dated 2022).
Read-outs that look alike come from different tables or passages of the source.

Tests used:
full-length HAQ STING = full-length HAQ STING (Homo sapiens (Human), UniProt Q86WV6, G230A/H232R/R293Q/R71H); assay: 3H-cGAMP filtration binding assay (HAQ STING); settings: competition with tritiated cGAMP, HAQ STING membrane; read-out: EC50 (nM), 3H-cGAMP filtration binding assay for HAQ STING
Procedure, shortened: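 Competition binding of compounds against 8 nM [3H]cGAMP working stock on Hi-Five cell membranes overexpressing full-length HAQ STING; compound and membrane preincubated 60 min at RT before ligand addition. Bound radioactivity read by filtration and scintillation counting; percent activity normalized to controls, EC50 from 4-parameter fit.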

[1] = test system: IFN-β secretion in THP1 cells; assay: IFN-β secretion in THP1 cell culture (5 h); assay type: cell-based, human
Procedure, shortened: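 THP1 cells incubated with compound for 5 h at 37 °C, 5% CO2, and secreted IFN-β in supernatant quantified by AlphaLISA. Percent effect normalised to 30 uM cGAMP positive control and 0.3% DMSO. EC50 from 4-parameter fit.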

full-length WT STING = full-length WT STING (Homo sapiens (Human), UniProt Q86WV6, H232R); assay: 3H-cGAMP filtration binding assay (WT STING)
Protocol: The ability of compounds to bind STING is quantified by their ability to compete with tritiated cGAMP ligand for human STING receptor membrane using a radioactive filter-binding assay.
The basic WT STING filtration assay protocol is as follows:
Tritium levels for each reaction well were then measured using a PerkinElmer TopCount plate reader.
After normalization to controls, the percent activity for each compound concentration was calculated by measuring the amount of remaining radioactivity. The plot of percent activity versus the log of compound concentration was fit with a 4-parameter dose response equation to calculate EC50 values.

[2] = competition with tritiated cGAMP, WT STING membrane; read-out: EC50 (nM), 3H-cGAMP filtration binding assay for WT STING
[3] = IFN-β secretion in THP1 cell culture, 5 h, compound at 30 μM, percent activation relative to 2′3′-cGAMP
[4] = read-out: % Inh @ 20 uM, 3H-cGAMP filtration binding assay for WT STING

Chain of full-length WT STING (Q86WV6 other isoform, or with tags, fused parts or gaps H232R (already in the parent)): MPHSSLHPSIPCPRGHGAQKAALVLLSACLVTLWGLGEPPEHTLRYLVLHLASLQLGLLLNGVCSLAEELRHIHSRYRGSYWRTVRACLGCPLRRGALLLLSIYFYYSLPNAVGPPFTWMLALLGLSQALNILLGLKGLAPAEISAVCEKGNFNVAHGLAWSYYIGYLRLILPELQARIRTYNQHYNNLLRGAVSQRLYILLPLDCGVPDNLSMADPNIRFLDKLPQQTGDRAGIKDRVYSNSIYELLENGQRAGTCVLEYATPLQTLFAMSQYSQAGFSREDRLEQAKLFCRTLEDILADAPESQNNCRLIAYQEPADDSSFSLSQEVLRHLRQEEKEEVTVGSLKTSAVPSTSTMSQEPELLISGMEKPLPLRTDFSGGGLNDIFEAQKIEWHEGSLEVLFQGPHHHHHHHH
Chain of full-length HAQ STING (Q86WV6 other isoform, or with tags, fused parts or gaps, stated change not applied): as the sequence (Q86WV6 other isoform, or with tags, fused parts or gaps H232R (already in the parent)) above, with R71H, G230A, R293Q counted along it

| EC50 (full-length HAQ STING) | EC50 (full-length WT STING; [2]) | Structure (SMILES) | % Effect at 30 μM relative to 2′3′-cGAMP [1] | % Effect at 30 μM relative to 2′3′-cGAMP [1, 3] | further results |
| --- | --- | --- | --- | --- | --- |
| – | 302 nM | Nc1nc2c(ncn2[C@@H]2O[C@@H]3COP(=O)(S)O[C@H]4C[C@H](n5cc(F)c6c(N)ncnc65)O[C@@H]4COP(=O)(O)O[C@@H]2[C@@H]3F)c(=O)[nH]1 (stereo partly drawn) [Example 255, 2-amino-9-[(5R,7R,8S,12aR,14R,15aS,16R)-14-(4-amino-5-fluoro-7H-pyrrolo[2,3-d]pyrimidin-7-yl)-16-fluoro-10-hydroxy-2,10-dioxido-2-sulfanyloctahydro-12H-5,8-methanofuro[3,2-1][1,3,6,9,11,2,10]pentaoxadiphosphacyclo-tetradecin-7-yl]-1,9-dihydro-6H-purin-6-one] | – | 49% | – |
| – | 93.5 nM | Nc1nc2c(ncn2[C@@H]2O[C@@H]3COP(=O)(S)O[C@H]4C[C@H](n5cc(F)c6c(N)ncnc65)O[C@@H]4COP(=O)(O)O[C@@H]2[C@@H]3F)c(=O)[nH]1 (stereo partly drawn) [Example 256, 2-amino-9-[(5R,7R,8S,12aR,14R,15aS,16R)-14-(4-amino-5-fluoro-7H-pyrrolo[2,3-d]pyrimidin-7-yl)-16-fluoro-10-hydroxy-2,10-dioxido-2-sulfanyloctahydro-12H-5,8-methanofuro[3,2-1][1,3,6,9,11,2,10]pentaoxadiphosphacyclo-tetradecin-7-yl]-1,9-dihydro-6H-purin-6-one] | – | 149% | – |
| – | 422 nM | Nc1nc2c(ncn2[C@@H]2O[C@@H]3COP(=O)(S)O[C@H]4C[C@H](c5cnc6c(=O)[nH]cnn56)O[C@@H]4COP(=O)(S)O[C@@H]2[C@@H]3F)c(=O)[nH]1 (stereo partly drawn) [Example 336, 7-[(5R,7R,8S,12aR,14R,15aS,16R)-7-(2-amino-6-oxo-1,6-dihydro-9H-purin-9-yl)-16-fluoro-2,10-dioxido-2,10-disulfanyloctahydro-12H-5,8-methanofuro[3,2-l][1,3,6,9,11,2,10]pentaoxadiphosphacyclotetradecin-14-yl]imidazo[2,1-f][1,2,4]triazin-4(3H)-one] | – | 85% | – |
| 6.3 nM | – | Nc1nc2c(ncn2[C@@H]2O[C@@H]3COP(=O)(S)O[C@H]4[C@H](F)[C@H](n5nnc6c(=O)[nH]cnc65)O[C@@H]4COP(=O)(S)O[C@@H]2C3)c(=O)[nH]1 (stereo partly drawn) [Example 320, 3-[(5S,7R,8R,12aR,14R,15S,15aR)-7-(2-amino-6-oxo-1,6-dihydro-9H-purin-9-yl)-15-fluoro-2,10-dioxido-2,10-disulfanyloctahydro-12H-5,8-methanofuro[3,2-l][1,3,6,9,11,2,10]pentaoxadiphosphacyclotetradecin-14-yl]-3,6-dihydro-7H-[1,2,3]triazolo[4,5-d]pyrimidin-7-one] | – | 115% | – |
| < 1 nM | – | Nc1nc2c(ncn2[C@@H]2O[C@@H]3COP(=O)(S)O[C@H]4[C@H](F)[C@H](n5cnc6c(=O)[nH]cnc65)O[C@@H]4COP(=O)(S)O[C@@H]2C3)c(=O)[nH]1 (single isomer, unassigned) [Example 317] | – | 107% | – |
| 5.1 nM | – | Nc1nc2c(ncn2[C@@H]2O[C@@H]3COP(=O)(O)O[C@H]4[C@@H](O)[C@H](n5cnc6c(O)ncnc65)O[C@@H]4COP(=O)(O)O[C@@H]2[C@@H]3F)c(=O)[nH]1 [Example 300, 2-amino-9-[(5R,7R,8S,12aR,14R,15R,15aS,16R)-16-fluoro-2,10,15-trihydroxy-14-(6-hydroxy-9H-purin-9-yl)-2,10-dioxidooctahydro-12H-5,8-methanofuro[3,2-l] [1,3,6,9,11,2,10]pentaoxadiphosphacyclo-tetradecin-7-yl]-1,9-dihydro-6H-purin-6-one] | – | 86% | – |

The next lines start with the compound.

| Structure (SMILES) | EC50 (full-length HAQ STING) | EC50 (full-length WT STING; [2]) | % Effect at 30 μM relative to 2′3′-cGAMP [1] | % Effect at 30 μM relative to 2′3′-cGAMP [1, 3] | further results |
| --- | --- | --- | --- | --- | --- |
| Nc1nc2c(ncn2[C@@H]2O[C@@H]3COP(=O)(S)O[C@H]4[C@@H](O)[C@H](n5ccc6c(N)ncnc65)O[C@@H]4COP(=O)(O)O[C@@H]2[C@@H]3O)c(=O)[nH]1 (stereo partly drawn) [Example 43, 2-amino-9-[(5R,7R,8R,12aR,14R,15R,15aS,16R)-14-(4-amino-7H-pyrrolo[2,3-d]pyrimidin-7-yl)-10,15,16-trihydroxy-2,10-dioxido-2-sulfanyloctahydro-12H-5,8-methanofuro[3,2-l][1,3,6,9,11,2,10]pentaoxadiphosphacyclotetradecin-7-yl]-1,9-dihydro-6H-purin-6-one] | 162 nM | 1020 nM | 130% | – | – |
| Nc1nc2c(nnn2[C@@H]2O[C@@H]3COP(O)(=S)O[C@@H]4[C@@H](COP(O)(=S)O[C@@H]2[C@H]3F)O[C@@H](n2ccc3c(N)ncnc32)C4(F)F)c(=O)[nH]1 (stereo partly drawn) [Example 220, 5-amino-3-[(5R,7R,8S,12aR,14R,15aR,16S)-14-(4-amino-7H-pyrrolo[2,3-d]pyrimidin-7-yl)-15,15,16-trifluoro-2,10-dihydroxy-2,10-disulfidooctahydro-12H-5,8-methanofuro[3,2-l][1,3,6,9,11,2,10]pentaoxadiphosphacyclotetra-decin-7-yl]-3,6-dihydro-7H-[1,2,3]triazolo[4,5-d]pyrimidin-7-one] | – | – | 6% | – | inhibition at 20 µM (full-length WT STING; [4]): 29% |
| Nc1nc2c(ncn2[C@@H]2O[C@@H]3COP(O)(=S)O[C@H]4[C@H](F)[C@H](n5cnc6c(N)ncnc65)O[C@@H]4COP(O)(=S)O[C@@H]2C3(F)F)c(=O)[nH]1 (single isomer, unassigned) [Example 156] | – | – | 119% | – | EC50 (full-length WT STING; read-out: EC50 (nM), 3H-cGAMP filtration binding assay for WT STING; competition with tritiated cGAMP, WT STING membrane): < 1 nM |
| Nc1nc2c(ncn2[C@@H]2O[C@@H]3COP(O)(=S)O[C@H]4[C@H](F)[C@H](n5cnc6c(N)ncnc65)O[C@@H]4COP(O)(=S)O[C@@H]2C3(F)F)c(=O)[nH]1 (single isomer, unassigned) [Example 155] | – | – | 139% | – | EC50 (full-length WT STING; EC50 (nM), 3H-cGAMP filtration binding assay for WT STING, competition with tritiated cGAMP, WT STING membrane): < 1 nM |
| Nc1cc2c(ncn2[C@@H]2O[C@@H]3COP(=O)(S)O[C@H]4[C@H](F)[C@H](n5ccc6c(N)ncnc65)O[C@@H]4COP(=O)(S)O[C@@H]2[C@@H]3F)c(=O)[nH]1 (single isomer, unassigned) [Example 229] | – | – | – | – | inhibition at 20 µM (full-length WT STING; [4]): 31% |
| Nc1nc2c(ncn2[C@@H]2O[C@@H]3COP(O)(=S)O[C@H]4[C@@H](O)[C@H](n5cnc6c(N)ncnc65)O[C@@H]4COP(=O)(O)O[C@@H]2[C@@H]3O)c(=O)[nH]1 (stereo partly drawn) [Example 38, 2-amino-9-[(5R,7R,8R,12aR,14R,15R,15aS,16R)-14-(6-amino-9H-purin-9-yl)-2,10,15,16-tetrahydroxy-10-oxido-2-sulfidooctahydro-12H-5,8-methanofuro[3,2-l][1,3,6,9,11,2,10]pentaoxadiphosphacyclotetradecin-7-yl]-1,9-dihydro-6H-purin-6-one] | 3 nM | 24.9 nM | 123% | – | – |
